Active and inactive are the calls of the source.
Experiments:
Kallikrein-7 = Kallikrein-7 (Homo sapiens, UniProt P49862); assay: Fluorescence Intensity-based biochemical primary high throughput dose response assay to identify activators of kallikrein-7 (K7) zymogen.
[1] = molecular target: Voltage-gated inwardly rectifying potassium channel KCNH2 (Homo sapiens, UniProt Q12809); assay: concentration-dependent hERG rescue from blockers – cell-based, thallium flux, dose response (AID 2121); assay type: ADME
Chain of Voltage-gated inwardly rectifying potassium channel KCNH2 (Q12809 whole entry): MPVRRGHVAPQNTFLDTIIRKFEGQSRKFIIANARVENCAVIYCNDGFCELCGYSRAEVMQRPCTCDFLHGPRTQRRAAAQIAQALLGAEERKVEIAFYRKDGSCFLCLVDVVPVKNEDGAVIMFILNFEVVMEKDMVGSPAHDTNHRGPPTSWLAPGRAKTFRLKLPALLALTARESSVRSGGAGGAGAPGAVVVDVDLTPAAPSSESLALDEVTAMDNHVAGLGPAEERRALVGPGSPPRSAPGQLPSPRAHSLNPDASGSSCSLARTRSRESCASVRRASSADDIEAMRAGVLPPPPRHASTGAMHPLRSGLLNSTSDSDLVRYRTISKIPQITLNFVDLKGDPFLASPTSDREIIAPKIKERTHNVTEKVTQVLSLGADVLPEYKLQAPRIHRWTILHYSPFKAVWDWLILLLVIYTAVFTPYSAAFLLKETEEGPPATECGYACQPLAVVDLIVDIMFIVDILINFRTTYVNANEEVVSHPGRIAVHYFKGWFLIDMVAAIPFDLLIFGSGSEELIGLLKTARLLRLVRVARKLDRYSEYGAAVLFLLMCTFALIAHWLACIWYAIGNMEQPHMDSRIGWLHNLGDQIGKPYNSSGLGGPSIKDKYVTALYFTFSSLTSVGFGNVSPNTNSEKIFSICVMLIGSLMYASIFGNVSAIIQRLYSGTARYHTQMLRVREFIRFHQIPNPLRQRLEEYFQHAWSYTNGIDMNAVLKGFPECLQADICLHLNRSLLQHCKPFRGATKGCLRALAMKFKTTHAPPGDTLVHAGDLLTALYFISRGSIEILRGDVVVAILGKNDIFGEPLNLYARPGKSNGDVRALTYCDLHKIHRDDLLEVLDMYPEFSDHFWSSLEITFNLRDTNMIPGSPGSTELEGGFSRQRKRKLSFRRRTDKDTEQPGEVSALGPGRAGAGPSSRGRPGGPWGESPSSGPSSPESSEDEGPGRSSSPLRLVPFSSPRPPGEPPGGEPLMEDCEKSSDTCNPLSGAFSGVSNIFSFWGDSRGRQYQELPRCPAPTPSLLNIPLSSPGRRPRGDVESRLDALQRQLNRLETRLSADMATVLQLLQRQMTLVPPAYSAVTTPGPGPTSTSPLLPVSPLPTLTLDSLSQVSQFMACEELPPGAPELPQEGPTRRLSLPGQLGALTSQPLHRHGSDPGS

[2] = molecular target: Luciferin 4-monooxygenase (Photinus pyralis, UniProt P08659); assay: Counter Screen for Luciferase-based Assay Positives. [Related pubchem assays: 620, 618, 411 ]
Chain of Luciferin 4-monooxygenase (P08659 whole entry): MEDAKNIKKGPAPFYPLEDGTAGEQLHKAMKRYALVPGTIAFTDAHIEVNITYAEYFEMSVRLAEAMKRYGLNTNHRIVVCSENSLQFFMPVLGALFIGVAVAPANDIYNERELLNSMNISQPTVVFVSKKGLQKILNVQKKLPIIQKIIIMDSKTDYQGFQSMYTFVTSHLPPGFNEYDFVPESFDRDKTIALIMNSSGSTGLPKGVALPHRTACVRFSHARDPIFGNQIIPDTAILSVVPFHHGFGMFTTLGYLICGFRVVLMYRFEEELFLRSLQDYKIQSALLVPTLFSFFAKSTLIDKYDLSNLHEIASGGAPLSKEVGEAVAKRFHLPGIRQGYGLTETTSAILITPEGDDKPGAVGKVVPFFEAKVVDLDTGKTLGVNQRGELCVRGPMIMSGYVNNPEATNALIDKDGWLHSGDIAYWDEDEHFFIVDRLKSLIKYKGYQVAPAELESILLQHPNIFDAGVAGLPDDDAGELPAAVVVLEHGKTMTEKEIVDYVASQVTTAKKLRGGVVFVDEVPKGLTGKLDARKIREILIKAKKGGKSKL

HT-1080 = assay: HT1080 cell viability loss – fluorescence readout (AID 620); assay type: functional, cell-based; settings: Homo sapiens
[3] = molecular target: Glyceraldehyde-3-phosphate dehydrogenase (Homo sapiens, UniProt P04406)
Chain of Glyceraldehyde-3-phosphate dehydrogenase (P04406 whole entry): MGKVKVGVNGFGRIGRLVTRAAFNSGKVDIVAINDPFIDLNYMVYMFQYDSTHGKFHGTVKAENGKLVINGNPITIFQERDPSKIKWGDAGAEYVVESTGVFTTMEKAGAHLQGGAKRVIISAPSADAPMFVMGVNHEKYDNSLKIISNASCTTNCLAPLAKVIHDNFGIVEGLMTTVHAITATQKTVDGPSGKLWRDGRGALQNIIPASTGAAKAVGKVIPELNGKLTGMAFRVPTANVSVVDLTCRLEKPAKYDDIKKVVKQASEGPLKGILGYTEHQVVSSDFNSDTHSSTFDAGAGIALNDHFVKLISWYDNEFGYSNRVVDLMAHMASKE

[4] = test system: Streptococcus sp. 'group A'; assay: Streptococcus pyogenes SK(-)GAS viability under kanamycin – luminescence, BacTiterGlo, confirmation, counter-screen for streptokinase expression inhibitor project, dose response (AID 1900); assay type: functional, organism-based
Streptokinase A = molecular target: T1, Streptokinase A (Streptococcus pyogenes serotype M1, UniProt P10520); assay: viability-normalized secreted streptokinase activity reduction – plasminogen activation absorbance, OD405, dose response (AID 1914); assay type: functional, Streptococcus pyogenes M1 GAS;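 also: secreted streptokinase activity via plasminogen activation per viability signal from cell pellet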
T1 sequence (P10520 whole entry): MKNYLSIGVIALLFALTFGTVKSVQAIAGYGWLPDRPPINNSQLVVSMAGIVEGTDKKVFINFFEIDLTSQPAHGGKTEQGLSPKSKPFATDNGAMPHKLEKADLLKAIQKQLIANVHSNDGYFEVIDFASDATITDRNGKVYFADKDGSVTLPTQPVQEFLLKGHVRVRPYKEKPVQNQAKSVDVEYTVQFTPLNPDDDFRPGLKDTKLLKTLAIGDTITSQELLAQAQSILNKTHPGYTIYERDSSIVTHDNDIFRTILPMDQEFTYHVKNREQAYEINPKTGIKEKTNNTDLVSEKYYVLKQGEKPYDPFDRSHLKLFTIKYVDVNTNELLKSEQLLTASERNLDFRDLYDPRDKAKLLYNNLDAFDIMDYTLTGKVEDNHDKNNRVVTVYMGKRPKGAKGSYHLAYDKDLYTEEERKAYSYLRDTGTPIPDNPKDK

Streptococcus = assay: GAS UMAA2166 growth inhibition – luminescence, BacTiterGlo, counter-screen for streptokinase expression inhibitor project, dose response (AID 1915); assay type: functional, organism-based;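 also: potency for reduction of bacterial viability or growth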
[5] = molecular target: Eukaryotic translation initiation factor 4E (Mus musculus, UniProt P63073); assay: blockers of eIF4G binding by eIF4E – biochemical, TR-FRET, dose response (AID 855); assay type: functional;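 also: potency for disrupting eIF4E binding to eIF4GI seen as loss of FRET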
Chain of Eukaryotic translation initiation factor 4E (P63073 whole entry): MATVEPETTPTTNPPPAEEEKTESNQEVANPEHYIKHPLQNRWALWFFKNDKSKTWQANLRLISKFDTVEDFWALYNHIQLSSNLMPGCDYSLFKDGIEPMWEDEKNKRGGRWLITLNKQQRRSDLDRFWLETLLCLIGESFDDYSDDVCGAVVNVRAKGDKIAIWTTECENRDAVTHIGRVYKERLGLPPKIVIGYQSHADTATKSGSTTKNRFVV

[6] = Counterscreen for IDE inhibitors: Luminescence-based cell-based high throughput dose response assay to identify compounds that are cytotoxic to HEK cells. [Related pubchem assays: 434962 (Primary screen (IDE inhibitors in singlicate)), 449730 (Counterscreen (Cytotoxicity in triplicate)), 435028 (Confirmation (IDE inhibitors in triplicate)) …; assay type: functional; settings: HEK293
Insulin-degrading enzyme = molecular target: T2, Insulin-degrading enzyme (Homo sapiens, UniProt P14735); assay: Dose Response: Fluorescence polarization-based cell-based high throughput dose response assay for inhibitors of insulin-degrading enzyme (IDE). [Related pubchem assays: 434962 (Primary screen (IDE inhibitors in singlicate)), 449730 (Counterscreen (Cytotoxicity in triplicate)), 435028 (Confirmation (IDE inhibitors in triplicate)), 434984 (Summary …; assay type: functional
T2 sequence (P14735 whole entry): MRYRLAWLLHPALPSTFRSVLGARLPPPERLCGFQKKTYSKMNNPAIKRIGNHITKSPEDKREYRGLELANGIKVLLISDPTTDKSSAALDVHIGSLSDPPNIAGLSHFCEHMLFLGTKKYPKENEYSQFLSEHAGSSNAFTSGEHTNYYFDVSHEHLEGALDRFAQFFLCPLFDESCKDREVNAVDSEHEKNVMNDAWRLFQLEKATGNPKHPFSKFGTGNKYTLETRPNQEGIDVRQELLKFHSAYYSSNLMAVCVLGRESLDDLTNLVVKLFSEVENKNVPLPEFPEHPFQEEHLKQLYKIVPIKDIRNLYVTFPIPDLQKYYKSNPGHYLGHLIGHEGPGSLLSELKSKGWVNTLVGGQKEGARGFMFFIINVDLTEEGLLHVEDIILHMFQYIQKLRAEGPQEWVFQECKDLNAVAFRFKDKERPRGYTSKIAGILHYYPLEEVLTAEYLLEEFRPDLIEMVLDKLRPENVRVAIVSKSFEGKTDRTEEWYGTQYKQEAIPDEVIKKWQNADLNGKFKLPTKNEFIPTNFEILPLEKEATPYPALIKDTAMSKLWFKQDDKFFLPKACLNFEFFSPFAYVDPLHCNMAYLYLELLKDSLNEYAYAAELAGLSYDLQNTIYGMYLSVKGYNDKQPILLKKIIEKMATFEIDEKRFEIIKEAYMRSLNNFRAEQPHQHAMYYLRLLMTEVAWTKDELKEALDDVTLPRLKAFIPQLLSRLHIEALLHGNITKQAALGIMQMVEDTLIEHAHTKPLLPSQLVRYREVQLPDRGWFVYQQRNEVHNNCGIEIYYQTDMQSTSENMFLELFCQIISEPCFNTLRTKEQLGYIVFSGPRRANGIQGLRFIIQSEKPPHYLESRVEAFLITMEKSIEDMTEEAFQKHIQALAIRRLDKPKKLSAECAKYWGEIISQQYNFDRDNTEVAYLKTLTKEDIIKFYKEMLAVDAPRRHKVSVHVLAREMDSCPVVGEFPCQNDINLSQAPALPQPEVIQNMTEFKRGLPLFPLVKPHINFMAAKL

Chain of Kallikrein-7 (P49862 whole entry): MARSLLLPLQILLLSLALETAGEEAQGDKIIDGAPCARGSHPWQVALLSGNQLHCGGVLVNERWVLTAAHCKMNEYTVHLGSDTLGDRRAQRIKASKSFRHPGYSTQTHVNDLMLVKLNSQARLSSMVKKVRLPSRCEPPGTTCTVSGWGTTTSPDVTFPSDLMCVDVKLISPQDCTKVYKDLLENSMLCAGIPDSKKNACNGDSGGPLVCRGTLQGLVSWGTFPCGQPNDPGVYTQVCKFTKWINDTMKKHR

In the case of `N=c1c(C(=O)NCC2CCCO2)cc2c(=O)n3ccccc3nc2n1C1CCCC1` (stereo not given), the EC50 (Kallikrein-7) is reported as 24.4 µM (inactive).

For `CCN(CC)C(=S)NC(=O)c1ccc(OC)c(Br)c1`, the EC50 [1] was 0.66 µM (active).

For `COC(=O)c1sccc1NS(=O)(=O)c1ccc(F)cc1F`, the EC50 [1] was 2.94 µM (active).

With `Cc1ccc(NC(=O)N2CCc3ccccc32)cc1` the EC50 [2] was 0.72 µM (active) and the EC50 (HT-1080) was > 50 µM (not active).

With `O=C(O)c1cc(-c2ccc(/C=N/n3cnnc3)o2)ccc1O` the IC50 [3] was > 100 µM (not active).

For `Nc1ccc2[nH]c(-c3cc(Cl)c(N)c(Cl)c3)nc2c1`, the EC50 [4] was 42.8 µM (active), the EC50 (Streptokinase A) was > 150 µM (not active) and the EC50 (Streptococcus) was > 150 µM (not active). The IC50 [5] was > 64 µM (inactive) and the EC50 (Kallikrein-7) was > 69.5 µM (inactive).

With `Cc1cccc(C(=O)Nc2ccnc(-c3cccnc3)n2)c1` the IC50 [6] was 35.7 µM (not active) and the IC50 (Insulin-degrading enzyme) was 7 µM (active).

For `CC1CCN(c2ccc3c(c2)S(=O)(=O)c2cccc(C(=O)NC4CC4)c2C3=O)CC1`, the IC50 [6] was 22.6 µM (not active) and the IC50 (Insulin-degrading enzyme) was > 55.9 µM (not active).

From ChEMBL document CHEMBL1201862, “PubChem BioAssay data set” (2004)
